Data on 26 compounds can be found in patent US8859543B2, “Imidazo[1,2-a]pyrazine derivatives and their use for the prevention or treatment of neurological, psychiatric and metabolic disorders and diseases” (Janssen Pharmaceutica NV, priority 2010, dated 2014).

For experiment [1], the target named is T1, Rat recombinant PDE10A (rPDE10A2) (Rattus norvegicus, UniProt Q9QYJ6).
T1 construct: made in house; host or cells: Sf9 insect cells, baculovirus
T1 sequence (Q9QYJ6 1-794): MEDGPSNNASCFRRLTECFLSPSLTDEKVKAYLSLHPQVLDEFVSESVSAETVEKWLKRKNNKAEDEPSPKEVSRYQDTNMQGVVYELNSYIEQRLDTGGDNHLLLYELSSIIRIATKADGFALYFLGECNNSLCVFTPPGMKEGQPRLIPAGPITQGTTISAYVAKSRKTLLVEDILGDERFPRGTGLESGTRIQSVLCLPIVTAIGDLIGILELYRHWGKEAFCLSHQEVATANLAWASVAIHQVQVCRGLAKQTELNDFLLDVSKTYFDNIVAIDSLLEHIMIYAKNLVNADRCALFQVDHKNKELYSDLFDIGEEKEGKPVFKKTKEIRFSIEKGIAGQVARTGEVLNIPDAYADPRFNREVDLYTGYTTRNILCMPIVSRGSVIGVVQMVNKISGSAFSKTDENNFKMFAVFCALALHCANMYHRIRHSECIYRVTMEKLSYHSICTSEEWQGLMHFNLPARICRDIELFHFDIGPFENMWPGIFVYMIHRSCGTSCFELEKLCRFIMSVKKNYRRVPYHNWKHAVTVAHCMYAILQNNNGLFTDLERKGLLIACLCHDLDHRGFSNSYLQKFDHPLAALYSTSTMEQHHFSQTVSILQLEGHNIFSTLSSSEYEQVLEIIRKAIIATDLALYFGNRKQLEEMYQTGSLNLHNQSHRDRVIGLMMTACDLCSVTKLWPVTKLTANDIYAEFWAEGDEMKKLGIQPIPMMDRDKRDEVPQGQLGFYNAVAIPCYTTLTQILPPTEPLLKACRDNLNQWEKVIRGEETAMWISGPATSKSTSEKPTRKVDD
Briefly: In vitro assay PDE10A (SPA, 3H-cAMP). The settings on record: pIC50 corresponds to the -log IC50 expressed in mol/L; for IC50: read-out: PDE10A2 pIC50 (converted). In kind it is biochemical. In outline: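 Purified Sf9-expressed rat PDE10A2 incubated 60 min at RT with 60 nM cAMP plus 0.008 μCi 3H-cAMP in 50 mM Tris pH 7.8, 8.3 mM MgCl2, 1.7 mM EGTA, 1% DMSO final. Product quantified by scintillation proximity counting against no-enzyme blanks and DMSO controls.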

For the next experiment, the target named is T2, PDE10 (Rattus norvegicus, UniProt Q9QYJ6).
T2 construct: from tissue; host or cells: rat brain sections, striatum (ex vivo autoradiography after in vivo dosing)
T2 sequence (Q9QYJ6 1-794): T1 sequence (Q9QYJ6 1-794)
The experiment in a line: PDE10 occupancy ([3H]-MP-10, striatum). The format is in vivo. The settings on record: for ED50 / receptor occupancy at 10 mg/kg: rat; for ED50: occupancy, read-out: Occ. ED50; for receptor occupancy at 10 mg/kg: 1 h, read-out: % occ. printed under Occ. ED50 >10. As to the method: Dose-response or single dose experiments were performed to measure PDE10 occupancy 1 hour after subcutaneous (s.c.) or oral (p.o.) administration. Male Wistar rats (200 g) were treated by s.c. or p.o. administration of various PDE10 inhibitors. The PDE10 radioligand [^3H]-MP-10 (10 μCi/animal) was injected intravenously (i.v.) 30 minutes before sacrifice. Brains were immediately removed from the skull and rapidly frozen. Twenty μm-thick brain sections were cut using a cryostat-microtome, thaw-mounted on microscope slides and loaded in a β-imager to quantify PDE10 occupancy in the striatum.

For experiment [2], the system named is apomorphine-induced stereotypy. The experiment in a line: Apomorphine-induced stereotypy in rats (APO). The settings on record: Rattus norvegicus. The format is in vivo. Here is the method: Apomorphine-Induced Stereotypy in Rats (APO)
Apomorphine (1.0 mg/kg, i.v.)-induced stereotypy (compulsive sniffing, licking, chewing) was scored every 5 min. over the first hour after injection of apomorphine, following a 1 hour interval pre-treatment with the test compound. The score system was: (3) pronounced, (2) moderate, (1) slight, and (O) absent.

Experiment [3] relates to PCP-induced hyperlocomotion. Briefly: PCP-induced hyperlocomotion in rats (PCP). The format is in vivo. The note with it: Rattus norvegicus.
Where [4] appears, read: not active at 2.5 or at 10 mg/kg, not further tested, read-out: APO ED50 (not active at threshold dose).
Setting [5] is: po, * compound was not soluble and was tested orally as a suspension, read-out: APO ED50.

Read-outs that look alike come from different tables or passages of the source.

For the compound `COC(C)(C)c1ccc(-c2c(C)nc3c(N4CCOCC4)nccn23)cn1` [compound 30, 3-[6-(1-Methoxy-1-methyl-ethyl)-pyridin-3-yl]-2-methyl-8-morpholin-4-yl-imidazo[1,2-a]pyrazine], in experiment [1], the IC50 was 0.107 µM. Moreover, the ED50 (as a rule, the dose at which the effect has come halfway, by size or by number of responders) on PDE10 (sc, administered s.c.) turned out to be 3.4 mg/kg; in experiment [2] (read-out: APO ED50) it was 1.2 mg/kg.

For `COC(C)(C)Cn1cc(-c2c(C3CC3)nc3c(N4CCOCC4)nccn23)cn1` [compound 48], the IC50 in experiment [1] was 0.0331 µM. Also, the “% Occ. at 10 mg/kg” value at PDE10 (administered s.c.) was 53%. Also, in experiment [2] (read-out: APO ED50), the ED50 is 3.1 mg/kg.

Take `COCCn1cc(-c2c(C3CC3)nc3c(N4CCOCC4)nccn23)cn1` [compound 53]: the “PDE10A2 pIC50” value in experiment [1] was 7.27. The ED50 in experiment [2] (read-out: APO ED50) was 5 mg/kg; in experiment [3] it was at most 40 mg/kg.

Turning to `COCCc1ccc(-c2c(C(F)(F)F)nc3c(N4CCOCC4)nccn23)cn1` [compound 12, 3-[6-(2-Methoxy-ethyl)-pyridin-3-yl]-8-morpholin-4-yl-2-trifluoromethyl-imidazo[1,2-a]pyrazine], the receptor occupancy at 10 mg/kg on PDE10 (sc) was found to be 22%. The ED50 at PDE10 (sc, administered s.c.) was over 10 mg/kg; in experiment [2] (read-out: APO ED50) it was at most 2.5 mg/kg.

Regarding `COCCc1ccc(-c2c(C)nc3c(-c4ccncc4)nccn23)cn1` [compound 8, 3-[6-(2-Methoxy-ethyl)-pyridin-3-yl]-2-methyl-8-pyridin-4-yl-imidazo[1,2-a]pyrazine], the ED50 is 2.6 mg/kg on PDE10 (sc, administered s.c.) and 1.2 mg/kg in experiment [2] (read-out: APO ED50).

For `COC(C)(C)Cn1cc(-c2c(C)nc3c(N4CCOCC4)nccn23)cn1` [compound 72], the IC50 in experiment [1] is 0.0955 µM. Further, the ED50 at PDE10 (sc, administered s.c.) was 6.4 mg/kg; in experiment [2] (read-out: APO ED50) it was 1.2 mg/kg; in experiment [3] it was 2 mg/kg.

As to `Cc1nc2c(-c3ccncc3)nccn2c1-c1cnn(CC(C)C)c1` [compound 69], in experiment [1], the IC50 is 0.0891 µM. Besides, the “% Occ. at 10 mg/kg” value at PDE10 (administered s.c.) is 67%. The results for the 50% effective dose (ED50) in experiment [2] (read-out: APO ED50) and in experiment [3] were 5 mg/kg and 2 mg/kg, respectively.

Regarding `COCCc1ccc(-c2c(OC)nc3c(N4CCOCC4)nccn23)cn1` [compound 15, 2-Methoxy-3-[6-(2-methoxy-ethyl)-pyridin-3-yl]-8-morpholin-4-yl-imidazo[1,2-a]pyrazine], the ED50 came out at 1.5 mg/kg on PDE10 (sc, administered s.c.) and 1.2 mg/kg in experiment [2] (read-out: APO ED50).

In the case of `Cc1nc2c(N3CCOCC3)nccn2c1-c1cnn(CC2CC2(F)F)c1` (stereo not drawn) [compound 52], the IC50 in experiment [1] was 0.0525 µM. The ED50 at PDE10 (sc, administered s.c.) is 5.5 mg/kg; in experiment [2] (read-out: APO ED50), 3.1 mg/kg; in experiment [3], at most 10 mg/kg.

Turning to `COCCn1cc(-c2c(C)nc3c(N4CCCC4)nccn23)cn1` [compound 130], in experiment [1], the “PDE10A2 pIC50” value is 6.3. The “% Occ. at 10 mg/kg” value at PDE10 (administered s.c.) is given as 10%. Moreover, in experiment [2] (setting [4]), the ED50 was over 2.5 mg/kg.

In the case of `Cc1nc2c(N3CCOCC3)nccn2c1-c1cnn(CC2CCCCO2)c1` (single isomer, unassigned) [compound 70], the IC50 in experiment [1] is 0.0912 µM. For the same compound, the ED50 in experiment [2] (read-out: APO ED50) was 5 mg/kg; in experiment [3], 3.2 mg/kg.

On to `COCCn1cc(-c2c(C3CC3)nc3c(-c4ccncc4)nccn23)cn1` [compound 51], for which the IC50 in experiment [1] is 0.0501 µM. The “% Occ. at 10 mg/kg” value on PDE10 (administered s.c.) is 61%. Further, the ED50 in experiment [2] (read-out: APO ED50) is 1.2 mg/kg.

As to `Cc1nc2c(N3CCOCC3)nccn2c1-c1ccnc(OC(C)C)c1` [compound 113], in experiment [1], the IC50 was 0.251 µM. Moreover, the “% Occ. at 10 mg/kg” value at PDE10 (administered s.c.) was 11%. Also, the ED50 in experiment [2] (setting [4]) was over 2.5 mg/kg.

In the case of `COCCn1cc(-c2c(C)nc3c(-c4ccncc4)nccn23)cn1` [compound 34, 3-[1-(2-Methoxy-ethyl)-1H-pyrazol-4-yl]-2-methyl-8-pyridin-4-yl-imidazo[1,2-a]pyrazine], the IC50 in experiment [1] is 0.263 µM. For the same compound, at PDE10 (administered s.c.), the “% Occ. at 10 mg/kg” value was found to be 52%. For the same compound, the ED50 in experiment [2] (setting [5]) amounted to 1.2 mg/kg.

`FC(F)(F)Cn1cc(-c2c(C3CC3)nc3c(-c4ccncc4)nccn23)cn1` [compound 45]: the IC50 in experiment [1] is 0.02 µM. Moreover, on PDE10 (administered p.o. (a)), the “% Occ. at 10 mg/kg” value is reported as 53^a %. The ED50 in experiment [2] (setting [5]) was determined as 3.1 mg/kg.

As to `COCCn1cc(-c2c(C)nc3c(-c4cccnc4)nccn23)cn1` [compound 135], the “PDE10A2 pIC50” value in experiment [1] turned out to be 6.25. Besides, on PDE10 (po), the receptor occupancy at 10 mg/kg is 29%. The ED50 at PDE10 (po, administered p.o. (a)) is over 10 mg/kg.

In the case of `Cc1nc2c(N3CCOCC3)nccn2c1-c1ccc(N2CCOCC2)nc1` [compound 4, 2-Methyl-8-morpholin-4-yl-3-(6-morpholin-4-yl-pyridin-3-yl)-imidazo[1,2-a]pyrazine], the IC50 in experiment [1] was 0.141 µM. Also, on PDE10 (administered s.c.), the “% Occ. at 10 mg/kg” value is 28%. In addition, the ED50 in experiment [2] (read-out: APO ED50) is 3.1 mg/kg.

With `COCCn1cc(-c2c(C(F)(F)F)nc3c(N4CCOCC4)nccn23)cn1` [compound 118], the “PDE10A2 pIC50” value in experiment [1] is on record as 6.51. Also, the “% Occ. at 10 mg/kg” value at PDE10 (administered s.c.) stood at 0%. Also, the ED50 in experiment [2] (setting [4]) was over 2.5 mg/kg.

On to `COC(C)(C)Cn1cc(-c2c(C3CC3)nc3c(-c4ccncc4)nccn23)cn1` [compound 50], for which the IC50 in experiment [1] is 0.0479 µM. Also, the “% Occ. at 10 mg/kg” value on PDE10 (administered s.c.) turned out to be 72%. In experiment [2] (read-out: APO ED50), the 50% effective dose (ED50) worked out at 5 mg/kg.

As for `FC(F)(F)Cn1cc(-c2c(C3CC3)nc3c(N4CCOCC4)nccn23)cn1` [compound 46], the IC50 in experiment [1] was 0.0251 µM. The “% Occ. at 10 mg/kg” value on PDE10 (administered s.c.) amounted to 41%. In addition, in experiment [2] (setting [5]), the ED50 stood at 5 mg/kg.

As to `Cc1nc2c(N3CCOCC3)nccn2c1-c1ccc(C2CC2)nc1` [compound 28, 3-(6-Cyclopropyl-pyridin-3-yl)-2-methyl-8-morpholin-4-yl-imidazo[1,2-a]pyrazine], the receptor occupancy at 10 mg/kg on PDE10 (sc) was 31%. Also, the ED50 at PDE10 (sc, administered s.c.) was over 10 mg/kg; in experiment [2] (setting [5]) it was 1.2 mg/kg.

Turning to `Cc1nc2c(-c3ccncc3)nccn2c1-c1cnn(CC(F)(F)F)c1` [compound 67], the IC50 in experiment [1] is 0.0851 µM. Also, the “% Occ. at 10 mg/kg” value on PDE10 (administered s.c.) was 55%. Also, the ED50 in experiment [2] (setting [5]) came to 3.1 mg/kg.

Regarding `Cc1nc2c(N3CCOCC3)nccn2c1-c1ccnc(CC(C)C)c1` [compound 27, 3-(2-Isobutyl-pyridin-4-yl)-2-methyl-8-morpholin-4-yl-imidazo[1,2-a]pyrazine], in experiment [1], the IC50 is 0.0741 µM. Besides, in experiment [2] (setting [4]), the ED50 is over 2.5 mg/kg.

Turning to `Cc1nc2c(N3CCOCC3)nccn2c1-c1cnc(CC(C)C)s1` [compound 42, 3-(2-Isobutyl-thiazol-5-yl)-2-methyl-8-morpholin-4-yl-imidazo[1,2-a]pyrazine], the “% Occ. at 10 mg/kg” value at PDE10 (administered s.c.) is on record as 59%. For the same compound, the ED50 in experiment [2] (read-out: APO ED50) worked out at 5 mg/kg.

As to `Cc1nc2c(N3CCOCC3)nccn2c1-c1cnn(Cc2ccccn2)c1` [compound 76], in experiment [1], the IC50 was 0.102 µM. Also, the ED50 in experiment [2] (read-out: APO ED50) is 3.1 mg/kg.

Take `Cc1nc2c(N3CCOCC3)nccn2c1-c1cnn(Cc2ccccc2Cl)c1` [compound 94]: in experiment [1], the “PDE10A2 pIC50” value turned out to be 6.86. In addition, the ED50 in experiment [2] (setting [4]) is over 2.5 mg/kg.
